How the values were obtained:
Rattus norvegicus = assay: Antiinflammatory activity in carrageenan injection-induced rat inflammation model assessed as inhibition of rat paw edema; assay type: functional
Transcription factor Jun = Transcription factor Jun (Homo sapiens, UniProt P05412); assay: Inhibition of AP-1-mediated transcriptional activation in HEK293 cells by luciferase reporter gene assay; assay type: cell-based
[1] = target: T1, Retinoic acid receptor alpha (Homo sapiens, UniProt P10276); assay: Activity at RARalpha (unknown origin)
T1 sequence (P10276 whole entry): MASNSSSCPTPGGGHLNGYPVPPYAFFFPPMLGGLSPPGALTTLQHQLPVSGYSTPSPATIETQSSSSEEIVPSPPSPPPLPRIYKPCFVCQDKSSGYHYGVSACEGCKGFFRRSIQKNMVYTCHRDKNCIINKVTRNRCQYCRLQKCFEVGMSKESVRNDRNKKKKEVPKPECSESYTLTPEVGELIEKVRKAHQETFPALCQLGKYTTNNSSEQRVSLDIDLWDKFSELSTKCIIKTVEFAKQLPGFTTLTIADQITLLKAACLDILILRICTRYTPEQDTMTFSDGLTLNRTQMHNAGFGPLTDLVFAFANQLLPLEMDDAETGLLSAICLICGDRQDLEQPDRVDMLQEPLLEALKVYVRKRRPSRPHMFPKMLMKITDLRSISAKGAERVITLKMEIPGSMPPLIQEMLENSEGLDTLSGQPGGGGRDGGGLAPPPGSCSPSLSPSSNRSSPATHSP

[2] = target: T2, Retinoic acid receptor RXR-alpha (Homo sapiens, UniProt P19793); assay: Activity at RXRalpha (unknown origin)
T2 sequence (P19793 whole entry): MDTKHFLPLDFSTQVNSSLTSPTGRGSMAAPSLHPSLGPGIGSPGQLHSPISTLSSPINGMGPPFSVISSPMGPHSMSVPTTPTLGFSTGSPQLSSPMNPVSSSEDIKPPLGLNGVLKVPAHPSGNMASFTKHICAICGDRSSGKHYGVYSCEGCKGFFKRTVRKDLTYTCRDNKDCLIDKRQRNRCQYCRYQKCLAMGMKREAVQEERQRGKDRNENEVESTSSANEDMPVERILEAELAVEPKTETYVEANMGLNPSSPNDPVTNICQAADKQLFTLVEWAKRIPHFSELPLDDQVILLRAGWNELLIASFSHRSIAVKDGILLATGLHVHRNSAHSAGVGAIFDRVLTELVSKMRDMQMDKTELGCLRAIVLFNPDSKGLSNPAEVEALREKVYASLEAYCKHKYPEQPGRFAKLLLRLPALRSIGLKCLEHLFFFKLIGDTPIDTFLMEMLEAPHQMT

[3] = target: T3, Retinoic acid receptor beta (Homo sapiens, UniProt P10826); assay: Activity at RARbeta (unknown origin)
T3 sequence (P10826 whole entry): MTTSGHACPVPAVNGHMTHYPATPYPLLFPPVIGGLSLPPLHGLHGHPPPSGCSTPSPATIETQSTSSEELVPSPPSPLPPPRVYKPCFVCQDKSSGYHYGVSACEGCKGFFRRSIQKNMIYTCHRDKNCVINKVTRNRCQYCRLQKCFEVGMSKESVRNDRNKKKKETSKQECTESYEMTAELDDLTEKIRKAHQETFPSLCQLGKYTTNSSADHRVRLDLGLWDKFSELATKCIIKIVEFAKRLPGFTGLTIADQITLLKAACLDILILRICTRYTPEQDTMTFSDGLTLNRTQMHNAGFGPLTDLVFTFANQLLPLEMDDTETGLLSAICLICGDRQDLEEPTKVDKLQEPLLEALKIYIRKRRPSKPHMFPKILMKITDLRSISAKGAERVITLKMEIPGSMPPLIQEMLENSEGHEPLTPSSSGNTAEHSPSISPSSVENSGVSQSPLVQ

[4] = target: T4, Retinoic acid receptor gamma (Homo sapiens, UniProt P13631); assay: Activity at RARgamma (unknown origin)
T4 sequence (P13631 whole entry): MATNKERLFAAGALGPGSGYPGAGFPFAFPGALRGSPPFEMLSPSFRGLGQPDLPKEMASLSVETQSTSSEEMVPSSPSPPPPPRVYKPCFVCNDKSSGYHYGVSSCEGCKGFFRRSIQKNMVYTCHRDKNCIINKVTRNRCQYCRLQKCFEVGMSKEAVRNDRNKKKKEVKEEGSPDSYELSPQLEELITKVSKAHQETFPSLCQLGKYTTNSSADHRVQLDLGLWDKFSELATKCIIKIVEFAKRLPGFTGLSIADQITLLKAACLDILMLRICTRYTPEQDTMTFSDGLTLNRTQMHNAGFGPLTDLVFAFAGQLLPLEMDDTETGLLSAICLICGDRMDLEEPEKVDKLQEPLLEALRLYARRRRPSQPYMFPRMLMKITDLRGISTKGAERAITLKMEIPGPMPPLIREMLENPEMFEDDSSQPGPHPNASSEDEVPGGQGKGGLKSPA

Chain of Transcription factor Jun (P05412 whole entry): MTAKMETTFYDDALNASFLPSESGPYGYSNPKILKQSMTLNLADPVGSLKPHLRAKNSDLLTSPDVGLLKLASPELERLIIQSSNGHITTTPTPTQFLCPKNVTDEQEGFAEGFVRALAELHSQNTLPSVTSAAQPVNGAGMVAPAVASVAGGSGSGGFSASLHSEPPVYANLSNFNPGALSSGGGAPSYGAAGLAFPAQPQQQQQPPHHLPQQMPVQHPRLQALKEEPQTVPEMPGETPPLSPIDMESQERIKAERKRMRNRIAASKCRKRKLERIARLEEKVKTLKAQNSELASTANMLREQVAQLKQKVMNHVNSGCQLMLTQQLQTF

| IC50 (Transcription factor Jun) | EC50 [1] | EC50 [2] | EC50 [3] | EC50 [4] | Compound | inhibition (INH) (Rattus norvegicus) |
| --- | --- | --- | --- | --- | --- | --- |
| 500 nM | – | – | – | – | CNc1nc(-c2ccccc2)c(-c2nc3ccccc3c(=O)n2-c2ccccc2OC)s1 | 56% |
| – | > 1000 nM | > 1000 nM | > 1000 nM | > 1000 nM | CC1=C(/C=C/C(=C/C=C/C(C)=C/C(=O)O)c2ccc(C)cc2)C(C)(C)CCC1 | – |

— ChEMBL document CHEMBL3352097, “Small molecule inhibitors targeting activator protein 1 (AP-1)” (J Med Chem, 2014)
